According to article PMC7666214, “Kinetic insights into the peroxygenase activity of cellulose-active lytic polysaccharide monooxygenases (LPMOs)” (Nature Communications, 2020):

Target: T1, HRP (Armoracia rusticana, UniProt P00433)
T1 construct: gene PRXC1A; commercial horseradish peroxidase, used as purchased
T1 sequence (P00433 31-338): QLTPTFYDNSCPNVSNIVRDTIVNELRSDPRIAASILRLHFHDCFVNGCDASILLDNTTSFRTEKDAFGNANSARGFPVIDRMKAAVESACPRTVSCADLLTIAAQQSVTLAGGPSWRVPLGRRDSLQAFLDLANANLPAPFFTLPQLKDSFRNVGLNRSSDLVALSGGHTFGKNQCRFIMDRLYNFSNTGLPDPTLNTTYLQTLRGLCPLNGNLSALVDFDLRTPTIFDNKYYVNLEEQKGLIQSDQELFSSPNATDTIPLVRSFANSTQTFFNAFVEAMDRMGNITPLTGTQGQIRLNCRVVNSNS
Assay: absorbance at […] nm (resorufin)
Type: biochemical
Conditions: H2O2 co-substrate, Bis-Tris 50 mM pH 6.1, 25 °C; ping-pong

CC(=O)N1c2ccc(O)cc2Oc2cc(O)ccc21 [AR, N-acetyl-3,7-dihydroxyphenoxazine]
absorbance at 570 nm (resorufin): The kinetics of HRP with the AR substrate was consistent with the ping-pong mechanism
